Test results reported in US20050165218A1, “Crystal structure of the ligand binding domain of the retinoic acid-related orphan receptor alpha (ror-alpha)” (priority 2002, published 2005).
Counter-ions that a name gives are not always drawn.

Legend:
RORα [1] = molecular target: T1, RORα (Homo sapiens, UniProt P35398); assay: RORE reporter transcription in cells partially depleted of cholesterol (HPCD plus lovastatin, LDL-free serum); conditions: for Transcription of the RORE reporter in response to compound (in words): HPCD and lovastatin treated cells, compared to vehicle; for fold induction at 10 µM: read-out: Fold induction (ROR alpha transcriptional activity)
T1 sequence (P35398 1-556 isoform P35398-1): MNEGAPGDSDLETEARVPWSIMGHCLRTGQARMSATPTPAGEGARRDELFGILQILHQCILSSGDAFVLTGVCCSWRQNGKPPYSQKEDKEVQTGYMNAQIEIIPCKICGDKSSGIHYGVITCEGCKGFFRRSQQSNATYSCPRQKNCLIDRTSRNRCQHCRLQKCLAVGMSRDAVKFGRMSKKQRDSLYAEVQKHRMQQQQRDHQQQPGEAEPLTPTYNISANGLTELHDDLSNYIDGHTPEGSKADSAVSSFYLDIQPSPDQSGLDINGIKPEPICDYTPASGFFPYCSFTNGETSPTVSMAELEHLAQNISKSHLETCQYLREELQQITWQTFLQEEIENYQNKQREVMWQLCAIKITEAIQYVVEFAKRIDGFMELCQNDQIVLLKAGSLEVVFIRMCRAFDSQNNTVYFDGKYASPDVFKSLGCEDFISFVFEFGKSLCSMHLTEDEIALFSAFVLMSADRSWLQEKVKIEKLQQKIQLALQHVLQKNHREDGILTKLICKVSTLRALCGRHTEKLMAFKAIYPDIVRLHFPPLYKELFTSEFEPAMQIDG
Text: We next establish whether in eukaryotic cells partially depleted of cholesterol, RORα transcriptional activity can be reconstituted by addition of cholesterol. We therefore treat the cells with hydroxypropyl-β-cyclodextrin (HPCD), a cyclodextrin derivative known to function as a cholesterol shuttle. HPCD treatment is used in experiments aiming at the partial depletion of intracellular cholesterol. In order to prevent an increase of intracellular cholesterol through the activation of the mevalonate pathway, cells are also treated with lovastatin while they are fed with a medium containing LDL-free serum.

RORα-LBD = molecular target: T2, RORα-LBD (Homo sapiens, UniProt P35398); assay: Ligand exchange screening by mass spectrometry (ESI Q-Tof, non-covalent complexes); assay type: binding; conditions: for Displacement of cholesterol bound to the ROR-LBD (mass spectrometry): 10-fold molar excess of ligand, overnight at 4° C., protein 135 μM
T2 construct: (His)6RORα-LBD269-556 is produced in Sf9 cells; (His)6 (N); made in house; host or cells: Sf9 insect cells
T2 sequence (P35398 269-556 isoform P35398-1): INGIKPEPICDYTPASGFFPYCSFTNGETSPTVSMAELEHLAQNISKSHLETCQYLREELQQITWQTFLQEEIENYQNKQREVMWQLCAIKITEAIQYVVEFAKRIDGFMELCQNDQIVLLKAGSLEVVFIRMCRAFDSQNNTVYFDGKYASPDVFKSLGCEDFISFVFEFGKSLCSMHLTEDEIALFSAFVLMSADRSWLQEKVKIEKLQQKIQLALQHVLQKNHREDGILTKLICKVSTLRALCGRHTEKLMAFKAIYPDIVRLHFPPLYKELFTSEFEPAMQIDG
Description: (His)6RORα-LBD269-556 is produced in Sf9 cells and purified by Ni-NTA chromatography followed by size exclusion chromatography. The protein in Tris-HCl buffer at a concentration of 135 μM is incubated overnight at 4° C., with a 10-fold molar excess of 25-hydroxycholesterol (5-cholesten-3beta, 25-diol) or cholesterol sulfate (5-cholesten-3beta-ol-sulfate). Prior to mass spectrometry analysis, the protein is subjected to fast buffer exchange in 50 mM ammonium acetate pH 7.0 by size exclusion chromatography using disposable Centri∘Spin 20 columns (Princeton Separations, Adelphia, N.J.) according to manufacturer′s instructions. Mass spectrometry is carried out using a Q-Tof (Micromass, Manchester, UK) quadrupole time-of-flight hybrid tandem mass spectrometer equipped with a Micromass Z-type electrospray ionization source (ESI). The acquisition mass range is typically m/z 1500-4500 in 5 seconds. The mass spectrometer is tuned in order to allow detection of multiply-charged species of non-covalent complexes. The source block temperature and desolvation temperature are kept at 50° C. and 80° C., respectively. Sample cone voltage (Vc) is set to 23 volts for standard measurements. In-source induced fragmentation experiments are performed by increasing Vc up to 100 volts. The protein solution is infused at a flow rate of 10 μl/min. Data are recorded and processed using Masslynx software. Spectra are deconvoluted using MaxEnt analysis software (Micromass, Manchester, UK).
Generation of the construct (His)6RORα-LBD270-523, fermentation and purification are done as described above. […] The resulting solution is incubated overnight at 37° C. and further purified by size exclusion chromatography on a SPX75 column, before concentrating to 17.6 mg/ml for crystallization trials. MS determination of the native complex is done as described previously (Kallen et al., Structure, Vol.10, 1697-1707, 2002). A control experiment is done by incubating the same amount of RORα LBD protein with 5% DMSO under identical conditions. The protein concentration is approximately 15 μM in 50 mM AcONH4, pH 7.0. Both spectra are recorded under identical conditions with Vc=20 volts.

RORα [2] = molecular target: T1, RORα; assay: Screen of cholesterol derivatives for binding of RORα to the RORE in essentially cholesterol-free medium; conditions: baculovirus-expressed RORα
Text: The substances identified by rational design can be further analyzed in drug screening assay. The drug screening assays of the present invention may use any of a number of assays for measuring the functionality of RORα, including for the ability of RORα following ligand binding to transcriptionally regulate a gene, by increasing phosphorylation of RORα, by allowing RORα to dimerize or to heterodimerize with another nuclear receptor, by improving its ability to interact with co-activators, by changing its conformation and by increasing its ability to bind DNA. In one binding assay, a nucleic acid containing a RORα binding site is placed on a coated or onto a solid support. A preferred binding site is a response element (RORE) composed of a 6 bp AT rich motif immediately preceding a half site AGGTCA and the possible variants of this response element that are given in Giguere et al. 1994, Genes & Development 8:538-553, Mc Broom et al. 1995 Mol.Cell. Biol. 15: 796-808, Moraitis & Giguere, 1999; Molecular Endocrinology. 13:431-439. Methods for placing the nucleic acid on the solid support are well known in the art and include linking biotin to the nucleic acid and linking avidin to the solid support. The RORα is allowed to equilibrate with the nucleic acid and drugs are tested to see if they disrupt or enhance the binding. […]

RORα [3] = molecular target: T1, RORα; assay: RORE-tk-luc luciferase reporter assay in U2OS cells in essentially sterol free medium, fluvastatin treatment; assay type: cell-based
Description: Mammalian cells receive cholesterol by uptake from lipoproteins (LDL-cholesterol) and are able to synthesize cholesterol through the mevalonate pathway. In a situation where cells are cultured under conditions essentially sterol free, a key transcription factor, SREBP will be proteolytically cleaved and this releases a transcription factor to the nucleus. This transcription factor is able to transcriptionally activate HMG-CoA reductase, which is a critical step in the cholesterol biosynthesis through the mevalonate pathway. Statins, which are know drugs for hypercholesterol state are specific inhibitors of the HMG-CoA reductase. When cells are cultivated in sterol free medium, their HMG-CoA reductase is strongly activated. In this experiment cells, cultivated in medium essentially sterol free, are treated with fluvastatin. […] U2OS cells are transfected with expression vector for RORα (ROR) together with a luciferase reporter gene bearing a consensus response element for RORα (RORE-tk-luc). Luciferase activity is assayed in cells from 6 well plates and related to the activity in cells transfected with or without treatment with fluvastatin. The results are normalized to the protein content.

[4] = compounds 10 μM, cells treated with HPCD and lovastatin, LDL-free serum, control = 1

| Fold induction (ROR alpha transcriptional activity) (RORα [1]; 10 µM) | Transcription of the RORE reporter in response to compound (in words) (RORα [1]) | SMILES | fold induction at 10 µM (RORα [1]) | further results |
| --- | --- | --- | --- | --- |
| 1.2 |  | CC(C)CCC[C@](C)(O)[C@H]1CC[C@H]2[C@@H]3CC=C4C[C@@H](O)CC[C@]4(C)[C@H]3CC[C@@]21C [20(S)-OH-Chol] |  |  |
| 1.2 |  | CC(C)CC[C@@H](O)[C@@H](C)[C@H]1CC[C@H]2[C@@H]3CC=C4C[C@@H](O)CC[C@]4(C)[C@H]3CC[C@]12C [22(R)-OH-Chol] |  |  |
| 1.5 |  | C[C@@H](CO)CCC[C@@H](C)[C@H]1CC[C@H]2[C@@H]3CC=C4C[C@@H](O)CC[C@]4(C)[C@H]3CC[C@]12C [27-OH-Chol] |  |  |
|  | stimulated | CC(C)CCC[C@@H](C)[C@H]1CC[C@H]2[C@@H]3CC=C4C[C@@H](O)CC[C@]4(C)[C@H]3CC[C@]12C [Cholesterol, cholest-5-en-3beta-ol] | 3.3 |  |
|  | stimulated | CC(C)CCC[C@@H](C)[C@H]1CC[C@H]2[C@@H]3CC=C4C[C@H](O)CC[C@]4(C)[C@H]3CC[C@]12C [Epicholesterol, 5-Cholesten-3α-ol] | 2.8 |  |

More lines, now with the values behind:

| SMILES | Fold induction (ROR alpha transcriptional activity) (RORα [1]; 10 µM) | Transcription of the RORE reporter in response to compound (in words) (RORα [1]) | fold induction at 10 µM (RORα [1]) | further results |
| --- | --- | --- | --- | --- |
| CCC(CC[C@@H](C)[C@H]1CC[C@H]2[C@@H]3CC=C4C[C@@H](OC(C)=O)CC[C@]4(C)[C@H]3CC[C@]12C)C(C)C (stereo partly drawn) [5-Cholesten-24beta, 5-Cholesten-24β-ethyl-3β-ol acetate] | 1 | does not trigger any increase |  |  |
| CC(C)CCC[C@@H](C)[C@H]1CC[C@H]2C3=CC=C4C[C@@H](O)CC[C@]4(C)[C@H]3CC[C@]12C [7-Dehydrochol, 7-Dehydrocholesterol] |  |  |  | Fold induction (ROR alpha transcriptional activity) (RORα [1]; [4]): 4.6 |
| C[C@H](CCCC(C)(C)O)[C@H]1CC[C@H]2[C@@H]3CC=C4C[C@@H](O)CC[C@]4(C)[C@H]3CC[C@]12C [25-OH-Chol, 5-cholesten-3beta, 25-diol] |  |  | 1.6 | Displacement of cholesterol bound to the ROR-LBD (mass spectrometry) (RORα-LBD): able to fully displace cholesterol |
| CC(C)CCC[C@@H](C)[C@H]1CC[C@H]2[C@@H]3CC=C4C[C@@H](OS(=O)(=O)O)CC[C@]4(C)[C@H]3CC[C@]12C [Chol. Sulfate, 5-cholesten-3beta-ol-sulfate] |  |  | 5.4 | Exchange of cholesterol by cholesterol-sulfate, MS-analysis (RORα-LBD; 1.0 mM ligand, 73 μM (His)6RORαLBD270-523, overnight at 37° C.): confirmed by MS-analysis; Displacement of cholesterol bound to the ROR-LBD (mass spectrometry) (RORα-LBD; listed as cholesterol sulfate): able to fully displace cholesterol; Displacement of cholesterol bound to the ROR-LBD (mass spectrometry) (RORα-LBD; listed as cholesterol-sulfate): could be exchanged with cholesterol-sulfate; Stability of ligand/ROR-LBD complex versus in-source collisions at various cone-voltages (RORα-LBD; compared with apo-ROR-LBD, Vc up to 100 volts): more stable; Displacement of cholesterol (RORα binding to RORE screen) (RORα [2]): able to displace cholesterol |
| CC(C)CCC[C@@H](C)[C@H]1CC[C@H]2[C@@H]3CC[C@H]4C[C@@H](O)CC[C@]4(C)[C@H]3CC[C@]12C [Cholestanol] |  | stimulated |  | Fold induction (ROR alpha transcriptional activity) (RORα [1]; [4]): 2.4 |
| CC(C)n1c(/C=C/C(O)CC(O)CC(=O)O)c(-c2ccc(F)cc2)c2ccccc21 (stereo not shown) [Fluvastatin] |  |  |  | fold induction at 5 µM (RORα [3]; fluvastatin +5 μM, paired control 76, read-out: Fold induction (RORα transcriptional activity, luciferase)): 48; fold induction at 10 µM (RORα [3]; fluvastatin +10 μM, paired control 93, read-out: Fold induction (RORα transcriptional activity, luciferase)): 38 |
